Like-named read-outs stand apart in the source and are kept apart here.
Key:
[1] = system: AQP4; assay: AQP4 expression (real-time PCR, western blot) in rat RMG primary cultures and retinal explants; assay type: cell-based; details: for aldosterone induction of AQP4 mRNA in presence of antagonist: 10 nM aldosterone plus 1 µM antagonist, 24 hrs
Procedure: (§1) Rat RMG cells were obtained as described (deKozak, Y., Naud, M. C., Bellot, J., Faure, J. P., and Hicks, D. (1994) Differential tumor necrosis factor expression by resident retinal cells from experimental uveitis-susceptible and -resistant rat strains. J Neuroimmunol 55, 1-9). Briefly, rats at postnatal (PN) day 17 (when RMG cells are mature) were sacrificed and eyes enucleated. Intact eyeballs were maintained in DMEM overnight at room temperature in the dark, and then incubated 45 min with 2 mg/ml trypsin/collagenase I at 37° C. The neural retinas were separated from the lens and vitreous, cut into small fragments and plated in Petri dishes containing DMEM supplemented with 10% FCS, 100 units/ml penicillin, 100 µg/ml streptomycin, and 0.2% amphotericin B. Cultures were maintained at 37° C. in a humidified atmosphere containing 5% CO2. After 5 to 6 days, the cultures were washed extensively with medium so that only a strongly adherent flat cell population remained.
(§2) Müller cells were seeded in 6-well tissue culture plates (Becton Dickinson, Le Pont de Claix, France). Rat PN17 RMG cells were maintained in their initial Petri dishes. Sub confluent (80%) cells were incubated in media supplemented with 10% steroid-free (charcoal treated) FCS for 24 hrs. Corticosteroid (Sigma-Aldrich, Saint Quentin Fallavier, France) treatments were then applied respectively for a further 24 hrs: 10 nM aldosterone, 10 nM aldosterone plus 1).IM RU38486 (GR-specific antagonist), 10 nM aldosterone plus 1 µM RU26752 (MR-specific antagonist) or 1 µM dexamethasone. The steroids were previously dissolved in 2% steroid-free FCS media containing 0.1% ethanol. Control cells were treated with 0.1% ethanol in media.
(§3) After enucleation, rat retinas were isolated immediately under aseptic conditions and cut into 4 pieces. They were then transferred onto a Cyclopore 0.2).Im polycarbonate membrane (Whatman, Maidstone, England), and flatmounted with the vitreal side up. The support membranes were placed in 6-well tissue culture plates containing 2 ml DMEM supplemented with 10% steroid-free FCS, 1% penicillin-streptomycin and 0.1% amphotericin B. Explants were treated with corticosteroids as described for cultured cells. Similarly, the dose-dependent effect of aldosterone (0.1-100 nM) was analyzed on retinal explants in separate experiments.
(§4) Total RNA was isolated from the treated RMG cells and retinal explants using RNeasy Mini Kit (Qiagen, Courtaboeuf, France). First-strand cDNA was synthesized after DNase I (Qiagen) treatment using random primers (Invitrogen) and superscript II reverse transcriptase (Invitrogen). Transcript levels of ENaC-a, Kir4.1 and AQP4 were analyzed by real-time PCR performed in 7500 Real-Time PCR System (Applied Biosystems, Foster City, Calif., USA) with either TaqMan® (Applied Biosystems) or SYBR® Green (Invitrogen, Cergy Pontoise, France) detection. The 18S was used as internal control.
(§5) Retinal explants were homogenized in Np40 buffer in the presence of protease inhibitors. The protein concentration was determined by the Bradford method. Equal amounts of protein (12 .ug) were separated on Novex® 4%-12% Tris-Glycine gel (Invitrogen), transferred to nitrocellulose, and the blots were incubated with primary antibodies at 4° C. overnight. The membranes were washed, incubated with horse radish peroxidase conjugated goat anti-rabbit IgG (1:3000, Vector, AbCys, Paris, France) for 1 hr at room temperature, and developed using ECL Plus western blotting detection reagents (GE healthcare, Orsay, France). The j3-actin was used as internal control. The following primary antibodies were used: rabbit anti-alpha ENaC (1:500, Abcam, Cambridge, Mass., USA), rabbit anti-Kir4.1 (1:400, Alomone Labs, Jerusalem, Israel), rabbit anti-AQP4 (1:750, Millipore, St Quentin en Yvelines, France) and rabbit anti-j3-actin (1:1000, Abcam)

[2] = system: ENaC-α; assay: ENaC-α expression (real-time PCR, western blot) in rat RMG primary cultures and retinal explants; assay type: cell-based; details: for aldosterone-induced increase in ENaC-α subunit transcripts in presence of antagonist: 10 nM aldosterone plus 1 µM antagonist, 24 hrs
Procedure: as §1, §2, §3, §4, §5

[3] = system: Kir4.1; assay: Kir4.1 expression (real-time PCR, western blot) in rat RMG primary cultures and retinal explants; assay type: cell-based; details: for aldosterone-induced Kir4.1 up-regulation in presence of antagonist: 10 nM aldosterone plus 1 µM antagonist, 24 hrs
Procedure: as §1, §2, §3, §4, §5

[4] = system: AQP4; assay: AQP4 mRNA expression in RMG cells (Example 2); assay type: cell-based
Description: We have performed several experiments.

[5] = system: retina; assay: Intraocular injection in Brown Norway rats (gain of function mutation in the MR gene): CSCR-like retinal pathology; assay type: in vivo; details: FIGS. 1 and 2
[6] = system: sub retinal and/or intra retinal fluid; assay: Oral eplerenone in patients with CSCR or chronic diffuse epitheliopathy; assay type: in vivo, human; details: for recurrence: at 6 months
Description: Patients with non-resolutive or chronic diffuse epitheliopathy presenting with macular fluid accumulation have been treated with oral eplerenone, a specific MR antagonist. […] On the contrary, 4 months later and at 1 week before treatment, the amount of fluid had accumulated. […] They have a long history of recurrent CSCR on both eyes. In their left eye (OS), they present a macular edema with sub retinal fluid and retinal cysts. The left eye vision is reduced to 1/10 and the edema is chronic since more than 2 years. They have been treated with eplerenone 25 mg/day for 8 days and then 50 mg/days for 3 month. […] Moreover, vision in the left eye recovered to 6/10. No recurrence was observed on none of the eyes even at 6 months.

[7] = system: retina; assay: Intravitreal spironolactone in GK diabetic rats: retinal histology; assay type: in vivo, Goto-Kakizaki (GK) rats
Procedure: Goto-Kakizaki (GK) rats have been used as model for diabetic retinopathy. GK rats (Taconic Europe, Denmark), a Wistar non-obese model of Non-Insulin Dependent type 2 Diabetes were used at different ages of hyperglycemia. Glycemia was measured using Accutrend GC and Accu-check compact equipments (Roche) and plasma glucose >250 mg/dl was considered as diabetic state. […] Controls were selected from age-matched non-diabetic rats and with plasma glucose <150 mg/dl. […] 18 months diabetic rats were treated with intravitreous injections (1 μM) at day 1,3,5 and animals were re tested for ERGs 24 hrs after each injection. 24 hrs after the third injection, animals were sacrificed and the retina were analyzed using semi-thin sections.

[8] = system: retina; assay: Intravitreal spironolactone in GK diabetic rats: electroretinograms (ERG); assay type: in vivo, Goto-Kakizaki (GK) rats; details: 18 months diabetic GK rats, intravitreous 1 μM at day 1,3,5; 24 hrs after last injection, FIG. 7
Procedure: In 18 months-old GK rats, electroretinogramms were preformed (ERG).
18 months diabetic rats were treated with intravitreous injections (1 μM) at day 1,3,5 and animals were re tested for ERGs 24 hrs after each injection.

[9] = 18 months GK rats, 3 intravitreous injections 1 μM, vs vehicle, FIG. 8
[10] = GK diabetic rats, intraocular, conclusion
[11] = GK rats, 1 μM final in the vitreous, 24 hrs after injection, FIG. 6

SMILES: CCC[C@@H]1CC2=CC(=O)CC[C@]2(C)[C@H]2CC[C@@]3(C)[C@@H](CC[C@@]34CCC(=O)O4)[C@H]12 [RU26752]
- aldosterone induction of AQP4 mRNA in presence of antagonist [1]: fully suppressed
- aldosterone-induced AQP4 protein in presence of MR antagonist ([1]; western blot): blocked
- aldosterone-induced increase in ENaC-α subunit transcripts in presence of antagonist [2]: inhibited
- aldosterone-induced ENaC protein in presence of MR antagonist ([2]; western blot, retinal explants): not reduced
- aldosterone-induced Kir4.1 up-regulation in presence of antagonist [3]: weaker (or no) effect
- aldosterone-induced Kir4.1 protein in presence of MR antagonist ([3]; western blot): reduced
- aldosterone induction of AQP4 mRNA on co-administration of MR antagonist [4]: completely blocks the induction

SMILES: CC#C[C@]1(O)CC[C@H]2[C@@H]3CCC4=CC(=O)CCC4=C3[C@@H](c3ccc(N(C)C)cc3)C[C@@]21C [RU38486]
- aldosterone induction of AQP4 mRNA in presence of antagonist [1]: reduces somehow
- aldosterone-induced increase in ENaC-α subunit transcripts in presence of antagonist [2]: inhibited
- aldosterone-induced Kir4.1 up-regulation in presence of antagonist [3]: fully efficient to reduce it

SMILES: C[C@]12C[C@H](O)[C@H]3[C@@H](CCC4=CC(=O)CC[C@@]43C)[C@@H]1CC[C@@H]2C(=O)CO [corticosterone]
- retinal pathology after intraocular injection [5]: develop a retinal pathology very close to CSCR

SMILES: COC(=O)[C@@H]1CC2=CC(=O)CC[C@]2(C)[C@@]23O[C@@H]2C[C@@]2(C)[C@@H](CC[C@@]24CCC(=O)O4)[C@H]13 [eplerenone, Pregn-4-ene-7,21-dicarboxylic acid, 9,11-epoxy-17-hydroxy-3-oxo-,γ-lactone, methyl ester, (7α,11α,17β)]
- sub retinal fluid ([6]; FIG. 3 patient, CSCR unresolved for 4 months, 25 mg/day orally for 8 days): striking reduction
- recurrence ([6]; FIG. 3 patient, treatment discontinued after 4 weeks): did not show any recurrence
- sub retinal fluid ([6]; FIG. 3 patient, then 50 mg/day for 8 days, after 2 weeks of treatment): almost complete resolution
- sub retinal fluid ([6]; FIG. 4 patient, chronic CSCR, 25 mg/day for 8 days then 50 mg/day, 15 days after treatment): complete resolution
- macular cysts ([6]; FIG. 4 patient, chronic CSCR, 15 days after treatment): total resolution
- recurrence ([6]; FIG. 4 patient, both eyes): No recurrence
- vision in the left eye ([6]; FIG. 4 patient, reduced to 1/10 before treatment): 6/10
- kinetics of efficacy ([6]; patients, oral eplerenone): as early as the first week of use
- regression of sub retinal and/or intra retinal fluid ([6]; patients, oral eplerenone, FIGS. 3 and 4): very rapid and efficient regression

SMILES: CC(=O)S[C@@H]1CC2=CC(=O)CC[C@]2(C)[C@H]2CC[C@@]3(C)[C@@H](CC[C@@]34CCC(=O)O4)[C@H]12 [spironolactone, 17-hydroxy-7α-mercapto-3-oxo-17α-pregn-4-ene-21-carboxylic acid γ-lactone acetate]
- edema in inner/outer (IS/OS) segments and outer nuclear layer (ONL) [7, 9]: decreased
- vasodilation in the choriocapillaries [7, 9]: reduced
- formation of outer segments [7, 10]: improves
- retinal edema [7, 10]: efficiently reduces
- fluid accumulation in the outer nuclear layer (photoreceptor layer) [7, 11]: have decreased
- thickness of the outer retina [7, 11]: decreased
- ERG b-wave after treatment compared to before treatment [8]: significantly increased

SMILES: C[C@]12C=CC(=O)C=C1CC[C@H]1[C@@H]3C[C@@H](O)[C@](O)(C(=O)CO)[C@@]3(C)C[C@H](O)[C@@]12F [triamcinolone]
- expression of the water channel AQP4 [4]: reduces the expression of AQP4
- expression of the water channel AQP4 ([4]; listed as triamcinolone acetonide): same effect as a MR antagonist

— US9610294B2, “Methods and compositions for the treatment of fluid accumulation in and/or under the retina” (UNIVERSITE PARIS DESCARTES, priority 2010, dated 2017)
